{"source": "patent US6716829B2", "about": "“Aldosterone antagonist and cyclooxygenase-2 inhibitor combination therapy to prevent or treat inflammation-related cardiovascular disorders” (Pharmacia Corporation, priority 2000, dated 2004)", "key": {"interstitial collagen": {"tested_on": "interstitial collagen", "test": "Assay B: myocardial fibrosis (interstitial collagen volume fraction, hydroxyproline concentration)", "assay_type": "in vivo, Male Sprague Dawley rats", "details": "aldosterone/salt treatment, 4 weeks", "protocol": "Assay B: In Vivo Aldosterone Infusion Model Male Sprague Dawley rats (n=39; BW=250 g) […] Uni-nephrectomy performed during implantation of mini-pumps 2. Aldosterone ([…], sc via alzet minipump) 2. […] Hearts were stained with hematoxylin&eosin and the collagen specific dye picro-sirius red and were analyzed for determination of interstitial collagen volume fraction and morphologic abnormalities (i.e. necrosis, vascular injury). Hydroxyproline concentration was measured in the frozen hearts."}, "osteopontin [1]": {"tested_on": "osteopontin", "test": "Assay B: osteopontin mRNA in heart by quantitative RT-PCR (Taqman)", "assay_type": "in vivo, Male Sprague Dawley rats", "protocol": "Assay B: In Vivo Aldosterone Infusion Model Male Sprague Dawley rats (n=39; BW=250 g) 2. Aldosterone ([…], sc via alzet minipump) 2. […] Hearts were harvested and divided by half through a transverse section at the mid-ventricles: The upper half was stored into formalin. The bottom part was snap-frozen in liquid nitrogen for biochemical analysis. Determination of osteopontin and COX-2 was performed by quantitative RT-PCR (Taqman). Osteopontin was also identified in the heart by immunohistochemistry."}, "osteopontin [2]": {"tested_on": "osteopontin", "test": "Assay B: serum (circulating) osteopontin levels at 28 days", "assay_type": "in vivo, Male Sprague Dawley rats", "details": "NaCl 1% drinking rats with aldosterone and eplerenone", "protocol": "(§1) Assay B: In Vivo Aldosterone Infusion Model Male Sprague Dawley rats (n=39; BW=250 g) 2. Aldosterone (0.75 mg/hr, sc via alzet minipump) 2."}, "IL-6": {"tested_on": "IL-6", "test": "Assay B: IL-6 mRNA expression at 28 days", "assay_type": "in vivo, Male Sprague Dawley rats", "details": "aldosterone infused rats, 28 days (FIG. 46)", "protocol": "as §1"}, "[3]": {"tested_on": "angiotensin II infused, captopril treated stroke prone spontaneously hypertensive rats", "test": "Urinary protein excretion in angiotensin II infused, captopril treated stroke prone spontaneously hypertensive rats", "assay_type": "in vivo", "details": "captopril treated stroke prone spontaneously hypertensive rats (FIG. 35)"}, "[4]": {"tested_on": "angiotensin II infused, captopril treated stroke prone spontaneously hypertensive rats", "test": "Histopathological scores for renal injury in angiotensin II infused, captopril treated stroke prone spontaneously hypertensive rats", "assay_type": "in vivo", "details": "captopril treated stroke prone spontaneously hypertensive rats (FIG. 36)"}, "[5]": {"tested_on": "stroke-prone spontaneously hypertensive rats", "test": "Survival and cerebral injury in stroke-prone spontaneously hypertensive rats", "assay_type": "in vivo"}}, "note": "Entries after “also recorded” stand apart in the source; their conditions may differ.", "data": [{"molecule": "C[C@]12CCC(=O)C=C1CC[C@@H]1[C@@H]2[C@@H](O)C[C@]2(C=O)[C@@H](C(=O)CO)CC[C@@H]12", "note": "[Aldosterone]", "values": [{"measurement": "Myocardial fibrosis (interstitial collagen volume fraction, hydroxyproline concentration)", "setting": "interstitial collagen", "value": "absence of myocardial fibrosis"}, {"measurement": "Osteopontin mRNA upregulation", "setting": "osteopontin [1]; aldosterone/salt + vehicle vs control", "value": 7, "unit": "fold"}, {"measurement": "Osteopontin relative mRNA expression", "setting": "osteopontin [1]; hearts of aldosterone/salt-treated rats, quantitative RT-PCR, eplerenone 100 mpk", "value": "12.25±1.7"}]}, {"molecule": "COC(=O)[C@@H]1CC2=CC(=O)CC[C@]2(C)[C@@]23O[C@@H]2C[C@@]2(C)[C@@H](CC[C@@]24CCC(=O)O4)[C@H]13", "note": "[Eplerenone]", "values": [{"measurement": "Circulating (serum) osteopontin levels", "setting": "osteopontin [2]", "value": "marked decrease"}, {"measurement": "IL-6 expression", "setting": "IL-6", "value": "attenuated"}, {"measurement": "Increased urinary protein excretion", "setting": "[3]", "value": "inhibition"}, {"measurement": "Histopathological scores for renal injury", "setting": "[4]", "value": "reduction"}, {"measurement": "Survival", "setting": "[5]; stroke-prone spontaneously hypertensive rats (FIG. 37)", "value": "increased survival"}, {"measurement": "Cerebral injury", "setting": "[5]; stroke-prone spontaneously hypertensive rats (FIGS. 37, 38)", "value": "reduced cerebral injury; also recorded: decrease"}]}]}
